The results in this text go back to patent EP0751957B1, “PEPTIDE FRAGMENTS OF MICROBIAL STRESS PROTEINS AND PHARMACEUTICAL COMPOSITION MADE THEREOF FOR THE TREATMENT AND PREVENTION OF INFLAMMATORY DISEASES” (priority 1994, dated 2004).

Common to all, as to type: cell-based, Lewis rats
For assay [1], the system named is PLNC from preimmunised rats. Description: T cell proliferation assay, PLNC of peptide-preimmunised AA rats 42 days after Mt. The following applies: 42 days after Mt administration. On the procedure: (§1) Immunisations with synthetic peptides and primed lymph node populations: Rats were immunised with 50 µg of synthetic peptide in PBS/DDA in each hind footpad (i.e. 50 µg/footpad, 100 µg/rat). Ten days later, draining popliteal lymph nodes were removed, disaggregated, washed three times and used as a source of primed lymph node cells (PLNC). In some experiments, PLNC were derived as pooled inguinal and popliteal lymph nodes from AA rats 35-42 days post Mt immunisation.
(§2) T cell proliferation assays: PLNC were cultured in triplicate in 200 µl flat bottom microtitre wells (Costar) at 2 x 10^5 cells per well with or without antigen. In initial experiments PLNC were tested for responsiveness to individual peptides at concentrations of 5 and 20 µg/ml, and Mt, hsp65 and PPD over a range of concentrations. Concanavalin A (2 µg/ml) was used as a positive control for T cell proliferation. Cultures were incubated for 96 h at 37°C in a humidified atmosphere of 5% CO2. Cultures were pulsed for the final 16 h with [^3H] TdR (Amersham, U.K., 1 uCi/well) and TdR uptake measured using a liquid scintillation β counter. Assays using T cell lines were performed as above using 2 x 10^4 line cells per well with irradiated (30 Gy) syngeneic accessory cells (either 3 x 10^5 splenocytes/well or 10^6 thymocytes/well). Results are expressed as mean counts per minute (cpm) of triplicate cultures. In experiments where responses to Ag were low, responses were considered significant if the stimulation index (S.I. = […]) was greater than two and Student's t tests gave p < 0.01.
PLNC from preimmunised rats were tested for responsiveness to hsp65 epitopes 42 days after Mt administration (Fig. 8). […] Responses to peptide 176-190 containing the AA-associated epitope were found in all PLNC populations (and enhanced after 176-190 preimmunisation) with one exception.

Assay [2] has as its system RT1.B^1 molecules. Description: Inhibition of proliferation of T cell lines with other Ag specificities (MHC affinity, preliminary). The following applies: preliminary experiments, data not shown. The method, then: The relatively low quantities of hsp65 present in the Mt preparation might result in focusing of T cell responses on hsp65 epitopes with higher affinities for MHC class II molecules. […] Thus, when Ag concentrations are limited (i.e. following Mt immunisation) dominance of T cell epitopes might be more dependent on their relative MHC binding affinities, whereas following immunisation with large quantities of specific antigen (50-100 µg hsp65 per rat) relative dominance might not be simply a function of affinity for MHC. Clearly, antigen processing of the intact hsp65 molecule will determine the peptide fragments generated during in vivo priming, and the naturally processed fragments will not be identical to the synthetic 15mers used in this study. Also the molecular context of hsp65 (i.e recombinant monomeric hsp65, or the multimeric native protein in the Mt preparation) could affect antigen processing and influence the pattern of epitope recognition.

The subject of assay [3] is hsp65-PLNC. Description: T cell proliferation assay, hsp65-PLNC. To be noted: PLNC from hsp65-immunised rats; peptides 5 and 20 µg/ml. The method, then: (§3) Immunisations and primed lymph node populations: Rats were immunised with either Mt or hsp65. Mt was suspended at 5 mg/ml in IFA or DDA and 100 µl injected in each hind footpad (i.e. 500 µg/footpad, 1 mg/rat). Hsp65 (1 mg/ml in PBS) was mixed 1:1 with DDA and 100 µl injected (i.e. 50 µg/footpad, 100 µg/rat). Ten to 21 days later, draining popliteal lymph nodes were removed, disaggregated, washed three times and used as a source of primed lymph node cells (PLNC). In control experiments splenocytes and lymph nodes from unimmunised rats and PLNC from rats immunised with IFA or DDA/PBS alone were used.
as §2
Hsp65-PLNC were analysed for responsiveness to a panel of peptides covering the entire sequence of hsp65 (Fig. 3a). […] In terms of magnitude of response, three regions of the molecule (residues 176-190, 211-230 and 221-240) appeared to contain the "dominant" T cell epitopes, while regions 86-100. 251-270, 396-410 and 506-525 contained "subdominant" or minor epitopes.

The test system of assay [4] is Peptide-specific T cell lines. Kind of assay: T cell proliferation assay, peptide-specific T cell lines from peptide-immunised rats. The following applies: T cell line from 176-190-immunised PLNC; in vitro peptide 10 µg/ml. On the procedure:
as §2
T cell lines: T cell lines with specificity for mycobacterial hsp65 or peptides were generated by bulk stimulation of either hsp65-PLNC or Mt-PLNC. PLNC were cultured at 5 x 10^6/ml in culture medium supplemented with 2% normal rat serum (NRS) in the presence of 10 µg/ml Ag. After three days viable cells were harvested using a ficoll-isopaque gradient and cultured for a further four days in culture medium + 5% FCS and 5% TCGF (Con A-activated rat spleen supernatant). Seven days after initial stimulation lines were restimulated with irradiated spleen accessory cells and 10 µg/ml Ag in culture medium + NRS. Lines were maintained ir. this seven day restimulation cycle. Short term epitope-specific T cell lines were also generated from rats immunised with synthetic peptides. Peptide-PLNC were cultured as above in the presence of 10 µg/ml peptide.
Bulk stimulation generated T cell lines to eight of the nine peptides tested. These eight lines were tested for specificity after four in vitro restimulations (Table II). All responded to the immunising peptide and, to some extent, to hsp65.
(§4) T cell responses by immunisation with hsp65 peptides. Rats were immunised with synthetic peptides containing individual hsp65 epitopes (100 µg peptide/DDA per rat). Ten days later PLNC were isolated and tested for responses to overlapping peptides (20 µg/ml). Peptide-specific T cell lines were generated by bulk in vitro stimulation of PLNC with immunising peptide. Lines were tested for responses to overlapping peptides (10 µg/ml). […] Results are expressed as mean cpm of triplicate cultures. All SEM were less than 20%.

Assay [5] concerns primed lymph node cells (PLNC). Kind of assay: T cell proliferation assay, PLNC from peptide-immunised rats. To be noted: PLNC 10 days after immunisation with peptide 176-190 (100 µg/DDA); in vitro peptide 20 µg/ml. On the procedure: as §1, §2
To determine whether immunisation of rats with synthetic peptides was effective at priming for T cell reactivity to hsp65 epitopes, in vitro proliferative responses following immunisation with 100 µg of peptide each containing individual T cell epitopes were examined. PLNC isolated ten days after immunisation were tested for response to the immunising peptide, overlapping peptides and to hsp65 (Table II). PLNC responses were observed after immunisation with seven of the nine peptides. Responses were not seen after immunisation with peptides 386-400 and 511-525.
as §4

The subject of assay [6] is Mt-PLNC. Kind of assay: T cell proliferation assay, Mt-PLNC. The following applies: PLNC from rats immunised with Mt mixed with DDA. On the procedure:
as §3
T cell proliferation assays: PLNC were cultured in triplicate in 200 µl flat bottom microtitre wells (Costar) at 2 x 10^5 cells per well with or without antigen. In initial experiments PLNC were tested for responsiveness to individual peptides at concentrations of 5 and 20 µg/ml, and Mt, hsp65 and PPD over a range of concentrations. Concanavalin A (2 µg/ml) was used as a positive control for T cell proliferation. Cultures were incubated for 96 h at 37°C in a humidified atmosphere of 5% CO2. Cultures were pulsed for the final 16 h with [^3H] TdR (Amersham, U.K., 1 uCi/well) and TdR uptake measured using a liquid scintillation β counter. […] Results are expressed as mean counts per minute (cpm) of triplicate cultures. […]

Turning to “peptide 176-190: synthetic 15mer of mycobacterial hsp65 containing the AA-associated epitope 180-188”, the “PLNC response to peptide, rats preimmunised with PBS/DDA alone” value in assay [1] is “significant responses”. Further, the “PLNC response to peptide, rats preimmunised with peptide 256-270” value in assay [1] (rats protected from AA) is recorded as “total lack of response”. The “affinity for RT1.B^1 molecules relative to peptides 211-225 or 226-240” value in assay [2] is “higher affinity”. The “hsp65-PLNC proliferative response to peptide” value in assay [3] is recorded as “dominant”. For the same substance, the “CPM T Cell Line” value in assay [4] is reported as 31400 cpm. In addition, the “CPM PLNC” value in assay [5] was 57707 cpm. Besides, the “Mt/DDA-PLNC response to hsp65 peptide” value in assay [6] is given as “dominant”.
